# Test results: EP1734031A1, “NOVEL 2-(ALPHA-N-PENTANONYL)BENZOETES, THEIR PREPARATION AND USE” (priority 2004, dated 2005)
# Several values for one entry are separate records, joined by “and”; a condition that tells them apart may be missing. Equal values may be shown once.
# How the values were obtained:
# [1] = test system: model rats of middle cerebral artery thrombosis (MCAT); experiment: Effects on cerebral infarct area of MCAT rats (TTC staining); type: in vivo, SD rats; conditions: for cerebral infarct compared with the model group (in words): 50 mg/kg, P<0.05
# [2] = test system: thrombosis of artery-vein bypass in rats; experiment: Effects on thrombosis of artery-vein bypass in rats; type: in vivo, SD rats; conditions: for Dry-weight of thrombus / Wet-weight of thrombus: once per day for 3 days; for Inhibition (dry-weight of thrombus) / Inhibition (wet-weight of thrombus): vs. thrombus model group
# in vivo = conditions: mouse, po; for LD50 at 7 days: both, ICR
# [3] = test system: model rats of middle cerebral artery thrombosis (MCAT); experiment: Effects on neural symptoms of MCAT rats (behavioral score); type: in vivo, SD rats; conditions: for Scores 6 hours: 6 hours after operation; for Scores 6 hours / Scores 24 hours: full mark 4; for Scores 24 hours: 24 hours after operation; for % inhibition at hour 24 / alleviation on neural symptoms at 24 hours after the operation (in words): vs. model group; for alleviation on neural symptoms at 24 hours after the operation (in words): 50 mg/kg, P<0.01 or P<0.05
# [4] = Thermal stability (purity by HPLC); conditions: 10 days at 60°C
# Method: Tests were conducted for 10 days at 60°C in accordance with the testing method as described in Pharmacopoeia of P.R. China, 2000 ed., appendix XIX C of part two, "Guideline for testing the stability of medicament: method for testing thermal stability". The purity was determined in accordance with the test described in Pharmacopoeia of P.R. China, 2000 ed., appendix VD of part two, by using HPLC method, C18 column, mobile phase of acetonitrile:0.02M sodium dihydrogen phosphate = 40:60, detecting wavelength of 230 nm, flow rate of 1 ml/min.
# [5] = Stability to light (purity by HPLC); conditions: light test, 10 days
# Method: Tests were conducted for 10 days in accordance with the testing method as described in Pharmacopoeia of P.R. China, 2000 ed., appendix XIX C of part two, "Guideline for testing the stability of medicament: method for testing stability to light". The purity was determined in accordance with the test described in Pharmacopoeia of P.R. China, 2000 ed., appendix VD of part two, by using HPLC method, C18 column, mobile phase of acetonitrile:0.02M sodium dihydrogen phosphate = 40:60, detecting wavelength of 230 nm, flow rate of 1 ml/min.
# ICR mice = conditions: mouse, in vivo, po, 168 h
# [6] = Stability of aqueous solution (decomposed products by HPLC); type: physicochemical; conditions: aqueous solution 0.2 mg/ml, exposed to water for 24 hours
# [7] = 50 mg/kg by gavage, 24 hours after operation
# [8] = 50 mg/kg by gavage, vs. model group
# [9] = 100 mg/kg by gavage, 24 hours after operation
# [10] = 100 mg/kg by gavage, vs. model group
# [11] = 200 mg/kg by gavage, 24 hours after operation
# [12] = 200 mg/kg by gavage, vs. model group
SMILES,Dry-weight of thrombus ([2]; 50 mg/kg by gavage) [mg],Wet-weight of thrombus ([2]; 50 mg/kg by gavage) [mg],Inhibition (dry-weight of thrombus) ([2]; 50 mg/kg) [%],Inhibition (wet-weight of thrombus) ([2]; 50 mg/kg) [%],Dry-weight of thrombus ([2]; 100 mg/kg by gavage) [mg],Scores 6 hours ([3]; 50 mg/kg by gavage),Scores 24 hours ([3]; 50 mg/kg by gavage),% inhibition at hour 24 ([3]; 50 mg/kg by gavage) [%],Scores 6 hours ([3]; 100 mg/kg by gavage),Scores 24 hours ([3]; 100 mg/kg by gavage),% inhibition at hour 24 ([3]; 100 mg/kg by gavage) [%],Scores 6 hours ([3]; 200 mg/kg by gavage),Scores 24 hours ([3]; 200 mg/kg by gavage),% inhibition at hour 24 ([3]; 200 mg/kg by gavage) [%],"Cerebral infarct tissue weight/total brain weight [1, 7] [%]","Inhibition (cerebral infarct) [1, 8] [%]","Cerebral infarct tissue weight/total brain weight [1, 9] [%]","Inhibition (cerebral infarct) [1, 10] [%]","Cerebral infarct tissue weight/total brain weight [1, 11] [%]","Inhibition (cerebral infarct) [1, 12] [%]",other results
CCC/C=C1/OC(=O)c2ccccc21 [3-n-butenylphthalide],28.6 ± 9.6,169.9 ± 28.8,24.74,19.59,22.9 ± 11.9,3.50±0.53,3.40±0.52,6.59,3.36±0.81,2.91±0.70,21.98,3.36±0.67,3.00±0.63,19.57,–,–,–,–,–,–,"Cerebral infarct tissue weight/total brain weight ([1]; rat, in vivo): 5.90±1.50% and 5.49±2.14 %; Inhibition (cerebral infarct) ([1]; rat, in vivo): 20.38% and 28.84% and 27.86%; Wet-weight of thrombus ([2]; 100 mg/kg by gavage): 137.5 ± 47.4 mg; Inhibition (dry-weight of thrombus) ([2]; 100 mg/kg): 39.74%; Inhibition (wet-weight of thrombus) ([2]; 100 mg/kg): 34.93%; Dry-weight of thrombus ([2]; 200 mg/kg by gavage): 24.9 ± 12.3 mg; Wet-weight of thrombus ([2]; 200 mg/kg by gavage): 141.6 ± 41.2 mg; Inhibition (dry-weight of thrombus) ([2]; 200 mg/kg): 34.47%; Inhibition (wet-weight of thrombus) ([2]; 200 mg/kg): 32.99%; LD50 at 168 h (in vivo): 2570 mg/kg"
"CCCCC(O)c1ccccc1C(=O)O (stereo not drawn) [N,N'-dibenzylethylenediamine 2-(α-hydroxypentyl)benzoate] [listing 1 of 2 here]",–,–,–,–,–,–,–,–,–,–,–,–,–,–,–,–,–,–,–,–,LD50 at 168 h (in vivo): 2810 mg/kg
"CCCCC(O)c1ccccc1C(=O)O (stereo not drawn) [N,N'-dibenzylethylenediamine 2-(α-hydroxypentyl)benzoate] [listing 2 of 2 here]",–,–,–,–,–,–,3.09±0.54,15.11,–,2.91±0.70,–,3.36±0.67,2.82±0.87,24.40,5.85±2.32,21.05,5.50±1.82,30.73,5.09±2.14,33.11,alleviation on neural symptoms at 24 hours after the operation (in words) [3]: significantly alleviation
CCCCC1OC(=O)c2ccccc21 (racemic) [DL-3-n-butylphthalide],–,–,–,–,–,3.36±0.81,3.09±0.54,15.11,3.36±0.50,3.09±0.70,17.16,3.36±0.67,3.00±0.89,19.57,5.66±2.81,23.62,5.81±1.49,26.83,5.52±1.78,27.46,LD50 at 168 h (in vivo): 2190 mg/kg; alleviation on neural symptoms at 24 hours after the operation (in words) [3]: significantly alleviation
"CCCCC(=O)c1ccccc1C(=O)O.CCCCC(=O)c1ccccc1C(=O)O.c1ccc(CNCCNCc2ccccc2)cc1 [2-(α-n-pentanonyl)benzoate of N,N'-dibenzylethylene diamine]",39.0 ± 10.8,207.1 ± 45.3,23.98,20.10,29.9 ± 13.6,3.45±0.69,2.91±0.70,–,3.45±0.52,2.36±0.67,–,3.27±0.79,2.55±0.52,–,5.14±2.17,30.63,4.68±1.69,41.06,4.60±1.26,39.55,decomposed product (thermal stability) [4]: no decomposed product; decomposed product (stability to light) [5]: no decomposed product; cerebral infarct compared with the model group (in words) [1]: significantly reduced; Wet-weight of thrombus ([2]; 100 mg/kg by gavage): 157.9 ± 67.9 mg; Inhibition (dry-weight of thrombus) ([2]; 100 mg/kg): 41.72%; Inhibition (wet-weight of thrombus) ([2]; 100 mg/kg): 39.08%; Dry-weight of thrombus ([2]; 200 mg/kg by gavage): 32.3 ± 12.5 mg; Wet-weight of thrombus ([2]; 200 mg/kg by gavage): 191.7 ± 34.8 mg; Inhibition (dry-weight of thrombus) ([2]; 200 mg/kg): 37.04%; Inhibition (wet-weight of thrombus) ([2]; 200 mg/kg): 26.04%; LD50 value (ICR mice): 3078.8 mg/kg
"CCCCC(=O)c1ccccc1C(=O)[O-].[Na+] [Sodium 2-(α-n-pentanonyl)benzoate, sodium 2-(α-n-pentanonyl)benzoate]",26.2 ± 9.7,138.8 ± 41.1,31.05,34.31,19.7 ± 7.8,3.40±0.70,3.00±0.67,17.58,3.10±0.74,2.80±0.79,24.93,3.27±0.65,2.82±0.40,24.40,5.26±2.26,29.01,4.99±1.83,37.16,5.19±2.40,31.80,decomposed product (thermal stability) [4]: no decomposed product; decomposed product (stability to light) [5]: no decomposed product; cerebral infarct compared with the model group (in words) [1]: significantly reduced; decomposed product [6]: no decomposed product; Wet-weight of thrombus ([2]; 100 mg/kg by gavage): 115.4 ± 42.3 mg; Inhibition (dry-weight of thrombus) ([2]; 100 mg/kg): 48.16%; Inhibition (wet-weight of thrombus) ([2]; 100 mg/kg): 45.39%; Dry-weight of thrombus ([2]; 200 mg/kg by gavage): 22.4 ± 10.1 mg; Wet-weight of thrombus ([2]; 200 mg/kg by gavage): 131.1 ± 48.0 mg; Inhibition (dry-weight of thrombus) ([2]; 200 mg/kg): 41.05%; Inhibition (wet-weight of thrombus) ([2]; 200 mg/kg): 37.96%; LD50 at 7 days (in vivo): 2650 mg/kg; alleviation on neural symptoms at 24 hours after the operation (in words) [3]: significantly alleviation
"CCCCC(=O)c1ccccc1C(=O)[O-].[K+] [Potassium 2-(α-n-pentanonyl)benzoate, potassium 2-(α-n-pentanonyl)benzoate]",38.3 ± 15.4,208.8 ± 45.3,25.34,19.44,35.6 ± 14.0,3.27±0.79,2.91±0.70,20.05,3.36±0.67,2.82±0.75,24.40,3.20±0.63,2.10 ± 0.32 s,43.70,5.63±1.52,24.02,5.09±2.04,35.89,4.38±1.54,42.44,"decomposed product (thermal stability) [4]: no decomposed product; decomposed product (stability to light) [5]: no decomposed product; cerebral infarct compared with the model group (in words) [1]: significantly reduced; decomposed product [6]: no decomposed product; Wet-weight of thrombus ([2]; 100 mg/kg by gavage): 192.6 ± 41.2 mg; Inhibition (dry-weight of thrombus) ([2]; 100 mg/kg): 30.60%; Inhibition (wet-weight of thrombus) ([2]; 100 mg/kg): 25.69%; Dry-weight of thrombus ([2]; 200 mg/kg by gavage): 28.3 ± 16.3 mg; Wet-weight of thrombus ([2]; 200 mg/kg by gavage): 157.0 ± 51.4 mg; Inhibition (dry-weight of thrombus) ([2]; 200 mg/kg): 44.8%; Inhibition (wet-weight of thrombus) ([2]; 200 mg/kg): 39.43%; Inhibition (dry-weight of thrombus) ([2]; 200 mg/kg, listed as potassium 2-(α-n-pentanonyl)benzoate): 44.83%; LD50 at 7 days (in vivo): 2720 mg/kg; alleviation on neural symptoms at 24 hours after the operation (in words) [3]: significantly alleviation"
CCCCC(O)c1ccccc1C(=O)O (stereo not drawn) [Calcium 2-(α-hydroxypentyl)benzoate],–,–,–,–,–,3.45±0.52,3.36±0.50,7.69,3.55±0.52,3.09±0.70,17.16,3.45±0.52,2.91±0.54,21.98,6.39±2.33,13.77,5.82±1.90,26.70,5.41±1.77,28.91,–
